Reference: US4418065A, “Halophenyl-pyridyl-allylamine derivatives and use” (priority 1979, dated 1983)
Where a name gives a salt, the structure may show the parent alone. Read-outs that look alike come from different tables or passages of the source.

Tests used:
[1] = tested on: neuronal uptake of 5-hydroxytryptamine; assay: Inhibition of the uptake of ^14 C-5-HT in vivo (i.p. administration, hypothalamus slices); parameters: species or system mouse; conditions: for ED50: Mus musculus, ip, 0.5 h, read-out: Uptake of ^14 C-5-HT in vivo ED50; for Percentage inhibition of ^14 C-5-HT uptake at the highest dose examined: in vivo, at the highest dose examined (the > value, μmole/kg)
Experimental: (§1) The test substances were administered intraperitoneally half an hour before the animals were killed. […] The incubation time was 5 minutes with 5 minutes of preincubation before the labelled amines were added. The slices were dissolved in Soluene® and the amounts of radioactive amines taken up were determined by liquid scintillation. […] Active uptake is defined as that part of the radioactive uptake which is inhibited by a high concentration of cocaine.

[2] = tested on: neuronal uptake of noradrenaline; assay: Inhibition of the uptake of ^3 H-NA in vivo (i.p. administration, hypothalamus slices); parameters: species or system mouse; conditions: for ED50: Mus musculus, ip, 0.5 h, read-out: Uptake of ^3 H-NA in vivo ED50; for Percentage inhibition of ^3 H-NA uptake at the highest dose examined: in vivo, at the highest dose examined (the > value, μmole/kg)
Experimental: as §1

[3] = tested on: neuronal uptake of noradrenaline; assay: Inhibition of the uptake of ^3 H-NA in vitro (slices of mouse midbrain); type: biochemical; conditions: for EC50: mouse brain slices, 1×10^-7 M ^3 H-NA, 5 min
Experimental: as §1
(§2) In the in vitro method slices of mouse midbrain were preincubated for 5 minutes with solution of the compound to be tested and then incubated as described above.

[4] = tested on: neuronal uptake of 5-hydroxytryptamine; assay: Inhibition of the uptake of ^14 C-5-HT in vitro (slices of mouse midbrain); type: biochemical; conditions: for EC50: in vitro, mouse brain slices, 1×10^-7 M ^14 C-5-HT, 5 min
Experimental: as §1, §2

[5] = i.p., half an hour before the animals were killed, 50 percent decrease of active uptake

| SMILES | ED50 [1, 5] [µmol/kg] | EC50 [3] [nM] | EC50 [4] [nM] | ED50 [2, 5] [µmol/kg] | also measured |
| --- | --- | --- | --- | --- | --- |
| CN(C)CC=C(c1cccnc1)c1ccc(Cl)cc1Cl [2,4-di Cl CH3 E/Z 1:1, 3-(2,4-dichlorophenyl)-N,N-dimethyl-3-(3-pyridyl)-allylamine] | 42 | – | – | – | ED50 [2]: 63 µmol/kg |
| CNCC=C(c1cccnc1)c1ccc(Cl)cc1Cl [2,4-di Cl H E/Z 1:1, 3-(2,4-dichlorophenyl)-N-methyl-3-(3-pyridyl)-allylamine] | 60 | 900 | 500 | 82 | – |
| CN(C)CC=C(c1cccnc1)c1ccccc1Br [2-Br CH3 E/Z 1:1, 3-(2-bromophenyl)-N,N-dimethyl-3-(3-pyridyl)-allylamine] | > 126 | 2200 | 3500 | 79 | – |
| CNCC=C(c1cccnc1)c1ccccc1Br [2-Br H E/Z 1:1, 3-(2-bromophenyl)-N-methyl-3-(3-pyridyl)-allylamine] | > 132 | 1400 | 1500 | – | ED50 [2]: 63 µmol/kg |
| CN(C)C/C=C(\c1ccc(Br)cc1)c1cccnc1 [4-Br CH3 E, reference compound] | > 98 | – | – | 25 | Percentage inhibition of ^14 C-5-HT uptake at the highest dose examined ([1]; i.p.): 36% |
| CN(C)C/C=C(/c1ccc(Br)cc1)c1cccnc1 [4-Br CH3 Z, (Z)-3-(4-bromophenyl)-N,N-dimethyl-3-(3-pyridyl)allylamine, reference compound] | 49 | – | – | > 98 | Percentage inhibition of ^3 H-NA uptake at the highest dose examined ([2]; i.p.): 26% |
| CNC/C=C(\c1ccc(Br)cc1)c1cccnc1 [4-Br H E, reference compound] | 102 | – | – | 25 | – |
| CNC/C=C(/c1ccc(Br)cc1)c1cccnc1 [4-Br H Z, reference compound] | 15 | – | – | > 101 | Percentage inhibition of ^3 H-NA uptake at the highest dose examined ([2]; i.p.): 38% |
| CN(C)C/C=C(\c1cccnc1)c1cccc(Cl)c1.O=C(O)C(=O)O [Example 1, (Z)-3-(3-chlorophenyl)-N,N-dimethyl-3-(3-pyridyl)allylamine oxalate] | > 110 | 10000 | 2700 | > 110 | Percentage inhibition of ^14 C-5-HT uptake at the highest dose examined ([1]; i.p.): 12%; Percentage inhibition of ^3 H-NA uptake at the highest dose examined ([2]; i.p.): 41% |
| CN(C)C/C=C(/c1ccc(Cl)cc1)c1cccnc1 [Example 2, (Z)-3-(4-chlorophenyl)-N,N-dimethyl-3-(3-pyridyl)allylamine oxalate] | 34 | 1100 | 1100 | 46 | – |
| CNC/C=C(/c1ccc(Cl)cc1)c1cccnc1.O=C(O)C(=O)O [Example 3, (Z)-3-(4-Chlorophenyl)-N-methyl-3-(3-pyridyl)allylamine oxalate] | 19 | – | – | 23 | – |
| CN(C)CC=C(c1ccc(F)cc1)c1cccnc1 [Example 4, 3-(4-Fluorophenyl)-N,N-dimethyl-3-(3-pyridyl)allylamine oxalate] | 115 | – | – | 72 | – |
| CNCC=C(c1ccc(F)cc1)c1cccnc1 [Example 5, 3-(4-Fluorophenyl)-N-methyl-3-(3-pyridyl)allylamine oxalate] | 72 | – | – | 29 | – |
| CN(C)C/C=C(\c1cccnc1)c1ccccc1Br [Example 6, (E)-3-(2-Bromophenyl)-N,N-dimethyl-3-(3-pyridyl)allylamine oxalate] | > 98 | 2200 | 4200 | 37 | – |
| CNC/C=C(\c1cccnc1)c1ccccc1Br [Example 7, (E)-3-(2-Bromophenyl)-N-methyl-3-(3-pyridyl)allylamine oxalate] | 102 | 300 | 600 | 20 | – |
| CNC/C=C(\c1cccnc1)c1cccc(Br)c1 [Example 8, (Z)-3-(3-Bromophenyl)-N-methyl-3-(3-pyridyl)allylamine oxalate] | > 102 | 900 | 1400 | 58 | – |
| CN(C)C/C=C(\c1cccnc1)c1ccc(Cl)cc1Cl [Example 9, (E)-3-(2,4-Dichlorophenyl)-N,N-dimethyl-3-(3-pyridyl)allylamine oxalate] | 43 | – | – | > 101 | – |
| CNC/C=C(\c1cccnc1)c1ccc(Cl)cc1Cl [Example 10, (E)-3-(2,4-Dichlorophenyl)-N-methyl-3-(3-pyridyl)allylamine oxalate] | 18 | 2300 | 500 | 73 | – |
| CN(C)C/C=C(/c1ccc(I)cc1)c1cccnc1.O=C(O)C(=O)O [Example 11, (Z)-3-(4-iodophenyl)-N,N-dimethyl-3-(3-pyridyl)allylamine oxalate] | 46 | > 22000 | 1300 | > 88 | Percentage inhibition of ^3 H-NA uptake at the highest concentration examined ([3]; at the highest concentration examined (the > value, μM)): 33%; selectivity of the uptake inhibition (5-HT versus NA), in words ([4]; 5-HT versus NA uptake, brain slices): completely selective inhibitor of the 5-HT uptake; Percentage inhibition of ^3 H-NA uptake at the highest dose examined ([2]; i.p.): 0% |
| CN(C)C/C=C(\c1cccnc1)c1cccc(Br)c1 [Example 12, 3-(3-Bromophenyl)-N,N-dimethyl-3-(3-pyridyl)allylamine oxalate] | > 98 | – | – | 66 | – |
| CN(C)CCCN1c2ccccc2CCc2ccccc21 [Imipramine, reference compound] | – | – | – | – | ED50 [1]: 125 µmol/kg; ED50 [2]: 63 µmol/kg |
